According to US20200345746A1, “Oxazine Derivative for Use in the Prevention of Alzheimer's Disease in at Risk Patents” (Novartis AG, priority 2016, published 2020):

Tests used:
[1] = in vivo; details: APOE4-TR, mouse; for AUC(0-t): po
[2] = test system: Aβ42; assay: 3-month dose-ranging study: Aβ42 in CSF; format: in vivo, human; details: for Aβ42 % change from baseline, Mean (SD) / Aβ42 % change from baseline, Median: CSF, 3 months
Description: This study is listed in ClinicalTrials.gov under the NCT02576639 Identifier code.
The primary purpose of this study was to expand on previous safety and tolerability data obtained over 2-week and 4-week duration in the first in human study and thereby allow initiation of future long-term efficacy trials in subjects at risk of AD. In addition, data relevant for Pharmacokinetic/Pharmacodynamic modeling was obtained in order to support dose selection decisions for future efficacy studies.
In the completed first-in-human and 3-month dose-ranging safety and tolerability clinical studies described in Examples 5 and 6, Aβ concentrations in CSF were obtained by means of lumbar punctures before the first dose (baseline) and respectively after 2 weeks and 3 months of multiple dosing. ApoE4 genotype also was obtained in the subjects who consented. The percent change from baseline in Aβ40 and Aβ42 concentrations was calculated in subjects who took the study treatment and had no major protocol deviation with potential impact on the evaluation of the pharmacodynamic effect. Tables 18 to 21 below provide summary statistics of the percent change from baseline by treatment group and ApoE genotype (E4 heterozygotes versus E4 non-carriers). Only one subject with CSF data was E4 homozygote (from the 3-month dose-ranging safety and tolerability study).

[3] = test system: GFAP positive astrocytes; assay: Activated astrocytes in APP23 mice (GFAP positive area); format: in vivo, mouse; details: for Distal GFAP+ area / Proximal GFAP+ area / Total GFAP+ area / non-plaque associated GFAP+ area / plaque-associated GFAP+ area: normalized to total area (100 * mean ± SEM)
Description: Amyloid plaques were stained using a rabbit anti-Aβ primary antibody which recognizes the C-terminal part of the amyloid peptide (the antibody was raised as described in Schrader-Fischer G, Paganetti P A, 1996; Schrader-Fischer G et al., 1997). Activated astrocytes were detected using a commercial rabbit anti-GFAP (reference Z0334 from Dako Schweiz GmbH, Baar, Switzerland).
All study animals were used and brain tissue sections of 3 micrometers were freshly cut and collected on SuperFrost+ slides. The tissues sections were de-paraffinized and rehydrated under solvent-free conditions (EZprep solution) followed by antigen retrieval (demasking) performed by heat retrieval cycles for 32 min in an EDTA based buffer (CC1 solution). Subsequently, slides were blocked for 4 min using the DISCOVERY Inhibitor (reference 07017944001 (Roche)). The primary antibody diluted at 1/20,000 in antibody diluent was manually added on tissue sections and incubated for 1h at room temperature. A short post-fixation (glutaraldehyde at 0.05%) was performed before applying the multimer UltraMap-anti Rabbit HRP ready to use antibody (reference 05269717001) for 16 min.
Detection was performed using the DISCOVERY FITC® following the manufacturer's recommendations. Slides were then heat denaturated at 92° C. for 20 min before a manual application of the second primary antibody (anti-GFAP diluted at 1/2,000) and incubated for 1 h. UltraMap-anti-Rabbit HRP antibody was used again for 20 min to detect GFAP in combination with the DISCOVERY Rhodamine kit (reference 07259883001).
The slides were washed and mounted using Prolong® Gold antifade reagent (reference P36931, ThermoFisher, Switzerland) and further scanned with the Hamamatsu slide scanner instrument (NanoZoomer 2.0 HT, scanning software NDP-Scan Vers. 2.5, Hamamatsu Photonics France, Swiss Office, Solothurn, Switzerland) at the 40× objective. The scanning settings were as follows: the exposure time with the DAPI filter was set at 57 ms as well as for the FITC filter. The exposure time for the TRITC filter (detection of Rhodamine) was set at 14.2 ms.
For the beta-amyloid plaque and neuroinflammation analysis, the following sequence of steps was performed: • Slides were scanned with Hamamatsu Nanozoomer at 40× magnification. For each fluorescence labelling (DAPI, FITC and TRITC), a separate image was created • Manually outline ROIs (regions of interest) for defining cortex in brain sections for Aβ plaque assessment on the green FITC channel image, then use the resulting outline also for the other two channel images (copy resulting xml files) • Run the in-house developed ImageScope (V12.1.0.5029, Aperio Inc., USA) plug-in for creation and export of *.tif image tiles (at 10× magnification) for each of the 3 fluorescence channels
Image Batch Processing: • Obtain the combined true color image (DAPI, FITC, TRITC) for each section through accessing each individual fluorescence channel image • Segmentation of valid sample (within outlined ROI) from black unstained background • Apply adaptive thresholding technique for segmentation of objects in green channel image
(FITC-labeled Aβ plaques) • Separation of touching objects for correct subsequent individual object analysis after elimination of too small debris showing signal in the green (FITC) channel • Segmentation of TRITC-labeled objects in red channel (specific for GFAP or Iba1 staining indicating astrocytes or microglia) through morphological tophat transformation and thresholding • Feature based object classification […]

[4] = in vivo; details: C57BL/6, mouse; for AUC(0-t): po, AUCblood (AUC0-24 h)
Description: Blood samples were used to analyze whole-blood compound levels and were obtained either from tail-vein during the in-life part into EDTA tubes (CB300, Sarstedt, Germany) or from trunk blood at the day of necropsy into EDTA Eppendorf tubes (Milian S A, CatNoTOM-14, Fisher Scientific, Wohlen, Switzerland), or into serum tubes (CB300Z, Sarstedt, Nümbrecht, Germany).
Brain was removed immediately after decapitation, rinsed with saline and sectioned sagitally down the midline. The left half of the cerebellum was used to analyze compound level and was placed into a glass tube (Chromacol, 125×5-SV T051, Welwyn Garden City, United Kingdom), weighed and frozen in dry-ice, the left half of the forebrain (without olfactory bulb) was used for Aβ analysis, and was frozen on a metal plate on dry ice and placed into protein Lo-bind tube (003 0108.116, Eppendorf, Hamburg, Germany).
Ventral and dorsal skin were taken to analyze compound level, weighed and frozen on dry-ice.
Brain samples were mixed with 2 volumes of KH2PO4 buffer and homogenized using the Covaris® device. Skin samples were mixed with approx. 6-fold volumes of methanol/water and homogenized using a Precellys tube. Either 30 μL of blood, brain or skin homogenate were spiked with a structurally related internal standard and subsequently mixed with an at least 6-fold excess volume acetonitrile for protein precipitation. The supernatant was injected directly into the LC/MS/MS system for analysis.
For tissue exposure, only data at 4 and 24 h were available.

## C[C@@]1(c2nc(NC(=O)c3ncc(C(F)(F)F)cc3Cl)ccc2F)CO[C@@](C)(C(F)(F)F)C(N)=N1 [Compound 1, N-(6-((3R,6R)-5-amino-3,6-dimethyl-6-(trifluoromethyl)-3,6-dihydro-2H-1,4-oxazin-3-yl)-5-fluoropyridin-2-yl)-3-chloro-5-(trifluoromethyl)picolinamide]
[1]
  exposure reduction 4h/24h: 2-5 fold
[1]; 3 umol/kg
  AUCbrain (AUC0-24 h): 8.67 µmol·h/kg
  AUC(0-t): 1.56 µM·h
[1]; 10 umol/kg
  AUCbrain (AUC0-24 h): 15.83 µmol·h/kg
  AUC(0-t): 4.86 µM·h
[1]; 30 umol/kg
  AUCbrain (AUC0-24 h): 49.82 µmol·h/kg
  AUC(0-t): 14.9 µM·h
[2]; 2 mg, E4 heterozygotes
  Aβ42 % change from baseline, Mean (SD): −23 (9) %
  Aβ42 % change from baseline, Median: −23%
[2]; 2 mg, E4 non-carriers
  Aβ42 % change from baseline, Mean (SD): −24 (9) %
  Aβ42 % change from baseline, Median: −21%
[2]; 10 mg, E4 heterozygotes
  Aβ42 % change from baseline, Mean (SD): −66 (7) %
  Aβ42 % change from baseline, Median: −63%
[2]; 10 mg, E4 non-carriers
  Aβ42 % change from baseline, Mean (SD): −65 (5) %
  Aβ42 % change from baseline, Median: −66%
[2]; 35 mg, E4 heterozygotes
  Aβ42 % change from baseline, Mean (SD): −83 (5) %
  Aβ42 % change from baseline, Median: −85%
[2]; 35 mg, E4 non-carriers
  Aβ42 % change from baseline, Mean (SD): −81 (6) %
  Aβ42 % change from baseline, Median: −83%
[2]; 85 mg, E4 heterozygotes
  Aβ42 % change from baseline, Mean (SD): −88 (2) %
  Aβ42 % change from baseline, Median: −88%
[2]; 85 mg, E4 non-carriers
  Aβ42 % change from baseline, Mean (SD): −90 (2) %
  Aβ42 % change from baseline, Median: −90%
[2]; month 3, 2 mg QD
  Aβ42 in CSF percent change from baseline, Difference (90% CI) Cmpd 1-Placebo: −21.24 (−24.28, −18.21) %
  Aβ42 in CSF percent change from baseline, LSmean (SE): −24.00 (1.277) %
[2]; month 3, 10 mg QD
  Aβ42 in CSF percent change from baseline, Difference (90% CI) Cmpd 1-Placebo: −61.39 (−64.47, −58.31) %
  Aβ42 in CSF percent change from baseline, LSmean (SE): −64.15 (1.308) %
[2]; month 3, 35 mg QD
  Aβ42 in CSF percent change from baseline, Difference (90% CI) Cmpd 1-Placebo: −79.73 (−82.73, −76.73) %
  Aβ42 in CSF percent change from baseline, LSmean (SE): −82.49 (1.250) %
[2]; month 3, 85 mg QD
  Aβ42 in CSF percent change from baseline, Difference (90% CI) Cmpd 1-Placebo: −86.62 (−89.76, −83.49) %
  Aβ42 in CSF percent change from baseline, LSmean (SE): −89.38 (1.348) %
[3]; APP23, 0.03 g/kg food
  Distal GFAP+ area: 12.16 ± 1.52
  Proximal GFAP+ area: 4.11 ± 0.86
  Total GFAP+ area: 18.56 ± 2.59
  non-plaque associated GFAP+ area: 16.27 ± 2.19
  plaque-associated GFAP+ area: 2.29 ± 0.47
[3]; APP23, 0.03 g/kg vs vehicle
  Distal GFAP+ area, change vs vehicle: −8.9%
  Proximal GFAP+ area, change vs vehicle: −28.0%
  Total GFAP+ area, change vs vehicle: −16.9%
  non-plaque associated GFAP+ area, change vs vehicle: −14.6%
  plaque-associated GFAP+ area, change vs vehicle: −29.8%
[3]; APP23, 0.3 g/kg food
  Distal GFAP+ area: 9.72 ± 1.65
  Proximal GFAP+ area: 1.91 ± 0.51
  Total GFAP+ area: 12.79 ± 2.33
  non-plaque associated GFAP+ area: 11.63 ± 2.06
  plaque-associated GFAP+ area: 1.16 ± 0.32
[3]; APP23, 0.3 g/kg vs vehicle
  Distal GFAP+ area, change vs vehicle: −27.2%
  Proximal GFAP+ area, change vs vehicle: −66.6%
  Total GFAP+ area, change vs vehicle: −42.7%
  non-plaque associated GFAP+ area, change vs vehicle: −39.0%
  plaque-associated GFAP+ area, change vs vehicle: −64.3%
[4]
  Kp: 3.2
[4]; 8 umol/kg
  AUC(0-t): 3.43 µM·h
[4]; 50 umol/kg
  AUC(0-t): 28.9 µM·h
